Laboratory results as given in patent US7572439B2, “Enzyme disruption of bacterial biofilms” (priority 2002, dated 2009).
Marks after values point to notes of the source that are not given here.

Assays:
S. aureus [1] = assay: Pre-treatment of catheterized mice with lysostaphin before S. aureus challenge; type: in vivo; conditions: for CFUs catheter / CFUs heart / CFUs liver: rinsed; for Animals infected: rinsed after 22 hours, 10^4 S. aureus, 4 days
Experimental: Jugular vein catheterized mice were pretreated with one or two doses of lysostaphin via catheter prior to being challenged with S. aureus as in Example 4. The mice received either one dose of lysostaphin (40 mg/kg) 24 hours pre-challenge or two doses of lysostaphin (40 mg/kg) 24 hours and 2 hours pre-challenge. Lysostaphin solutions were left in the catheters during challenge. Control mice received standard Phosphate Buffered Saline (PBS). The mice were sacrificed four days post-challenge.
In the above example, the lysostaphin solution was left in the catheters at the time of bacterial challenge, so it could be argued that this lysostaphin in solution was protecting the catheters from S. aureus infection. In order to perform a more rigorous experiment, Catheterized mice were instilled with a single dose of 40 mg/kg lysostaphin in 200 ul PBS through the catheter. One group also received a subsequent 50 ul of lock solution containing the same concentration of lysostaphin as the pre-instillation dose. Twenty two hours later, the catheters of all of these mice were rinsed thoroughly with PBS. Two hours post-rinsing, the animals were challenged with 10^4 S. aureus. The animals were sacrificed 4 days post S. aureus challenge and the catheters and organs processed for bacteria.

S. epidermidis biofilms = assay: Disruption of S. epidermidis biofilms on glass chamber slide; type: cell-based; set-up: dose or concentration left out as unconfirmed
Text: Three S. epidermidis strains with various capacities for glycocalyx (slime) production were examined including, S. epidermidis strain Hay (a low slime producer), S. epidermidis strain SEI 175 (a moderate slime producer) and S. epidermidis ATCC 35984 (a high slime producer). All three of these S. epidermidis strains produced biofilms on a glass chamber slide (FIG. 9) with ATCC 35984 producing the thickest and most darkly staining biofilm as expected. […] S. aureus strain SA113 was included in this experiment as a control. […] The stained material visible in lysostaphin treated wells is extracellular glycocalyx which stained pink by safranin and contained no intact gram positive S. epidermidis cells, only cellular debris.

S. aureus [2] = assay: Lysostaphin activity on catheters in presence of serum proteins; type: cell-based
[3] = system: Methicillin Sensitive S. aureus; assay: Treatment of established infection in jugular vein catheterized mice; type: in vivo
Experimental: (§1) Jugular vein catheterized mice (Charles River Labs) were used. The mice were challenged through the tail vein with S. aureus (10^3-10^4CFU, a much lower dose than the 5×10^6 CFU or greater typically necessary to establish an infection in mice not catheterized). Treatment began four days post challenge when infection was established. Lysostaphin was administered through the indwelling catheter in a volume of 200 μ PBS (in the case of methicillin resistant S. aureus, nafcillin was added to the treatment). After the final treatment of the day, 50 μl of a lock solution (50% sterile glucose solution) with lysostaphin (and nafcillin, when used), added at the same concentration as used for treatment, was put in the catheters. Control mice received equal treatments with PBS and lock solution alone.
(§2) On the day following the last treatment the liver, heart and a portion of the catheter in the heart were harvested. The catheter portions were sonicated to release bacteria.

[4] = system: Methicillin-Resistant S. aureus; assay: as above; type: in vivo
Experimental: as §1, §2

SA5 = assay: Leaching of lysostaphin off coated surfaces; type: cell-based, S. aureus
Experimental: Leaching of Lysostaphin. To test whether lysostaphin was slowly being released from the catheter into the lumen solution, lysostaphin coated catheters were incubated with 100 μl PBS for 2 hours at 37° C. The PBS was then transferred into an Eppendorf tube and 10^5 CFU of SA5 was added to the effluent and incubated for 1 hour at 37° C. 40 μl from the samples were streaked onto blood agar plates and incubated overnight at 37° C. Alternatively, lysostaphin coated catheters were incubated with PBS overnight at 37° C. The following morning the PBS was washed out and the catheters were inoculated with ˜5×10^4 CFU/ml SA5 for 2 hours at 37° C. The effluent was then streaked onto blood agar plates and incubated at 37° C. overnight. To look for leaching off the polystyrene surface, the wells were coated with 10, 1 and 0.1 mg/ml lysostaphin for 60 minutes. The wells were then washed, and 300 μl of PBS was added to the wells for 2 hours and then removed 300 μl of a 5×10^4 CFU/ml solution of SA5 was added to the PBS wash and allowed to incubate for one hour at 37° C. 40 μl was then removed and streaked onto a blood agar plate and incubated overnight at 37° C.

S. epidermidis = assay: Killing of bacteria in lysostaphin-coated Angiocath catheters; type: cell-based; conditions: for CFU (n = 2): catheter coating 0.1 mg/ml; for log reduction from the control sample: coated catheters
Experimental: Coating of Catheters. The needles from the AngioCath catheters were removed and disposed. Using a 1 ml syringe, the catheters were coated with 200 μl of a 0.1 mg/ml solution of lysostaphin. The catheters were incubated for 1 hour, unless otherwise specified, at room temperature. The catheters were then washed with 50 ml of phosphate buffered saline using a peristaltic pump with a flow rate of 1.5 ml/minute. The catheters were then inoculated with 120 μl of a ˜5×10^4 CFU/ml solution of bacteria (diluted in TSB) and incubated for 2 hours at 37° C. The catheter effluent was then streaked onto a blood agar plate and incubated overnight at 37° C.

[5] = 40 mg/kg i.c., no lock, results from the one infected animal
[6] = Table 7, MRSA, 20 mg/kg t.i.d. 4 days

For lysostaphin, the CFUs catheter (S. aureus [1]; 40 mg/kg i.c. and lock) was 0 CFUs, the CFUs heart (S. aureus [1]; 40 mg/kg i.c. and lock) was 0 CFUs and the CFUs liver (S. aureus [1]; 40 mg/kg i.c. and lock) was 0 CFUs. The Animals infected (S. aureus [1]; 40 mg/kg i.c. and lock) was 0/4, the CFUs catheter (S. aureus [1]; 40 mg/kg i.c., no lock) was 0 CFUs and the Animals infected (S. aureus [1]; 40 mg/kg i.c., no lock) was 1/4. The CFUs heart (S. aureus [1]; [5]) was “(287)^a CFUs”, the CFUs liver (S. aureus [1]; [5]) was “(341)^a CFUs” and the “infection status of pretreated mice” value (S. aureus [1]; 40 mg/kg via catheter 24 hours or 24 hours and 2 hours pre-challenge, solution left in catheters, four days post-challenge) was “All eight treated mice were S. aureus free”. The “protection of catheters from formation of S. aureus biofilms” value (S. aureus [1]; single dose of 40 mg/kg pre-instilled, excess rinsed out) was “will protect the catheters from formation of S. aureus biofilms”, the “intact bacteria on surface after treatment (microscopic examination)” value (S. epidermidis biofilms; three hours (data not shown)) was “no intact bacteria left” and the “disruption of S. epidermidis biofilms (safranin)” value (S. epidermidis biofilms; three hours, strains Hay, SE1175, ATCC 35984) was “disrupted the biofilms of all three strains”. For the same substance, the “reduction in bacterial counts” value (S. aureus [2]; 0.1 mg/ml coated catheters incubated with human serum 24 hours) was 99%, the clearing of bacteria (S. aureus [2]; 10 and 1 mg/ml coated catheters incubated with human serum) was “completely cleared the bacteria” and the “S. aureus biofilm on implanted catheters (SEM, FIG. 6)” value ([3]; jugular vein catheterized mice after treatment) was “cleared the S. aureus biofilm from these catheters”. The “dose required for clearance of an established catheter infection” value ([3]; methicillin sensitive S. aureus, t.i.d. for 4 days) was 20 mg/kg, the “S. aureus recovered, Heart” value [4, 6] was 0 CFU and the “S. aureus recovered, Liver” value [4, 6] was 0 CFU. The “S. aureus recovered, Heart” value ([4]; Table 7, MRSA, 40 mg/kg t.i.d. 4 days) was 0 CFU, the “clearance of the S. aureus infection” value ([4]; lower doses or different dosing regimens (40 mg/kg once then 5 mg/kg; 3 doses of 15 mg/kg then 5 mg/kg)) was “did not result in complete clearance” and the “minimum dose necessary to clear catheters in mice” value ([4]; three times a day for four days) was 40 mg/kg. For the same substance, the “CFU (n = 3)” value (SA5; Angiocath, coating 0.1 mg/ml, saline incubation 2 hr, bacteria added to PBS wash) was 219 CFU, the “CFU (n = 3)” value (SA5; Angiocath, coating 0.1 mg/ml, saline incubation 24 hr, bacteria added to catheter) was 0 CFU and the “CFU (n = 3)” value (SA5; Polystyrene, coating 0.1 mg/m, saline incubation 2 hr, killing in wash) was 291 CFU. The “CFU (n = 3)” value (SA5; Polystyrene, coating 1 mg/ml, saline incubation 2 hr, killing in wash) was 33 CFU, the “CFU (n = 3)” value (SA5; Polystyrene, coating 10 mg/ml, saline incubation 2 hr, killing in wash) was 26 CFU and the “reduction in bacterial counts by PBS wash from coated catheters” value (SA5; bacteria added to PBS wash) was “only minimal reduction in bacterial counts”. The “log reduction in bacterial counts due to leaching” value (SA5; polystyrene, 0.1 mg/ml coating, PBS wash) was 0.33 log, the “log reduction of SA5 titers by wash compared to control” value (SA5; polystyrene, 1 mg/ml coating, PBS wash) was 1.3 log and the “log reduction of SA5 titers by wash compared to control” value (SA5; polystyrene, 10 mg/ml coating, PBS wash) was 1.4 log. The “clearing of bacteria by coated catheters after overnight wash with PBS” value (SA5; vs 1500 CFU's from untreated catheters) was “complete clearing of bacteria”, the “CFU (n = 2)” value (S. epidermidis; S. epi 380) was 4 CFU and the “CFU (n = 2)” value (S. epidermidis; S. epi 1175) was 68 CFU. For the same substance, the “CFU (n = 2)” value (S. epidermidis; S. epi 35984) was 16 CFU, the “log reduction from the control sample” value (S. epidermidis; S. epidermidis 1175) was 1.1 log and the “log reduction from the control sample” value (S. epidermidis; S. epidermidis ATCC 35984) was 1.8 log. For the same substance, the “log reduction from the control sample” value (S. epidermidis; S. epidermidis type 380) was 2.2 log.
